Test results from publication PMC11859184, “Synthesis and Evaluation of ^68Ga- and ^177Lu-Labeled [diF-Pro^14]Bombesin(6−14) Analogs for Detection and Radioligand Therapy of Gastrin-Releasing Peptide Receptor-Expressing Cancer” (Pharmaceuticals, 2025).
Where two headings read alike, the source gives them in different places.

Experiment: Ex vivo biodistribution of 177Lu-labeled ligands in PC-3 tumor-bearing mice
Details: mouse; for tissue to tissue ratio at 1 h / tissue to tissue ratio at 4 h / tissue to tissue ratio at 24 h / tissue to tissue ratio at 72 h / tissue to tissue ratio at 120 h: male, NOD.Cg-Rag1^tm1Mom Il2rg^tm1Wjl/SzJ (NRG), iv, total radioactivity; for tissue to tissue ratio at 1 h / tissue uptake at 1 h: 1 h pi; for tissue to tissue ratio at 4 h / tissue uptake at 4 h: 4 h pi; for tissue to tissue ratio at 24 h / tissue uptake at 24 h: 24 h pi; for tissue to tissue ratio at 120 h / tissue uptake at 120 h: 120 h pi; for tissue uptake at 1 h / tissue uptake at 4 h / tissue uptake at 24 h / tissue uptake at 72 h / tissue uptake at 120 h: intravenous
Procedure: SPECT/CT imaging was conducted using an MI Labs (Houten, The Netherlands) U-SPECT-II/CT scanner with a custom-made ultra-high sensitivity big mouse collimator (2 mm pinhole size) following published procedure. The experiments were obtained in accordance with the same protocol established in the PET/CT imaging and ex vivo biodistributions section. The mice were used for SPECT/CT imaging and ex vivo biodistributions studies once the tumors reached a diameter of 5–8 mm. PC-3 tumor-bearing mice were sedated (2.5% isoflurane in O2) and injected with 31.4–36.9 MBq of the ^177Lu-labeled ligand through a lateral caudal tail vein. The mouse was imaged at 1, 4, 24, 72, and 120 h pi. At each time point, a 5 min CT scan was performed with 615 μA and 60 kV parameters for localization and attenuation, followed by two 30 min static SPECT scans in list mode with an energy window centered around 208 keV. The U-SPECT II software was used to reconstruct data, and the images were decay corrected to the time of injection with PMOD v 3.402 (PMOD Technologies GmbH, Fallanden, Switzerland).
For ex vivo biodistribution studies, the mice were injected with ~3–5 MBq of the ^177Lu-labeled ligand (n = 5). At 1, 4, 24, 72, and 120 h post-injection, the mice were anesthetized with 2% isoflurane, euthanized by CO2 inhalation, and the tissues/organs of interest were […] for radioactivity counting. The blocking study was performed at 1 h pi via co-injection of the ^177Lu-labeled ligand with 100 μg of [D-Phe^6,Leu-NHEt^13,des-Met^14]Bombesin(6–14).

[1] = tumor/blood, n = 5, read-out: Tumor/blood uptake ratio
[2] = tumor/kidney, n = 5, read-out: Tumor/kidney uptake ratio
[3] = tumor/muscle, n = 5, read-out: Tumor/muscle uptake ratio
[4] = tumor/pancreas, n = 5, read-out: Tumor/pancreas uptake ratio
[5] = PC-3 tumor, n = 5, read-out: PC-3 tumor uptake
[6] = adrenal glands, n = 5, read-out: Adrenal glands uptake
[7] = blood, n = 5, read-out: Blood uptake
[8] = bone, n = 5, read-out: Bone uptake
[9] = brain, n = 5, read-out: Brain uptake
[10] = fat, n = 5, read-out: Fat uptake
[11] = heart, n = 5, read-out: Heart uptake

`CC(C)C[C@@H](CN1CC(F)(F)C[C@H]1C(N)=O)NC(=O)[C@H](Cc1c[nH]cn1)NC(=O)CN(C)C(=O)[C@@H](NC(=O)[C@H](C)NC(=O)[C@H](Cc1c[nH]c2ccccc12)NC(=O)[C@H](CCC(N)=O)NC(=O)[C@@H](Cc1ccccc1)NC(=O)CN1CCC(NC(=O)CN2CCN(CC(=O)O)CCN(CC(=O)O)CCN(CC(=O)O)CC2)CC1)C(C)C` [[^177Lu]Lu-LW02080, metal not drawn] gave a tissue to tissue ratio at 1 h (tumor/blood, blocked (100 µg GRPR antagonist co-injected), read-out: Tumor/blood uptake ratio) of 3.06 ± 0.99, a tissue to tissue ratio at 1 h [1] of 16.9 ± 5.57 and a tissue to tissue ratio at 4 h [1] of 136 ± 14.7. For the same compound, the tissue to tissue ratio at 24 h [1] was 365 ± 251, the tissue to tissue ratio at 72 h (tumor/blood, 72 h pi, n = 5, read-out: Tumor/blood uptake ratio) was 1300 ± 703 and the tissue to tissue ratio at 120 h [1] was 529 ± 380. The tissue to tissue ratio at 1 h (tumor/kidney, blocked (100 µg GRPR antagonist co-injected), read-out: Tumor/kidney uptake ratio) was 0.52 ± 0.08, the tissue to tissue ratio at 1 h [2] was 2.17 ± 0.49 and the tissue to tissue ratio at 4 h [2] was 1.61 ± 0.3. For the same compound, the tissue to tissue ratio at 24 h [2] was 1.34 ± 0.38, the tissue to tissue ratio at 72 h (tumor/kidney, 72 h pi, n = 5, read-out: Tumor/kidney uptake ratio) was 2.17 ± 0.33 and the tissue to tissue ratio at 120 h [2] was 2.77 ± 0.65. It also gave a tissue to tissue ratio at 1 h (tumor/muscle, blocked (100 µg GRPR antagonist co-injected), read-out: Tumor/muscle uptake ratio) of 14.6 ± 2.5, a tissue to tissue ratio at 1 h [3] of 90 ± 17.3 and a tissue to tissue ratio at 4 h [3] of 275 ± 35. The tissue to tissue ratio at 24 h [3] was 149 ± 50.5, the tissue to tissue ratio at 72 h (tumor/muscle, 72 h pi, n = 5, read-out: Tumor/muscle uptake ratio) was 356 ± 110 and the tissue to tissue ratio at 120 h [3] was 214 ± 77.9. The tissue to tissue ratio at 1 h (tumor/pancreas, blocked (100 µg GRPR antagonist co-injected), read-out: Tumor/pancreas uptake ratio) was 6.53 ± 0.76, the tissue to tissue ratio at 1 h [4] was 14.8 ± 2.39 and the tissue to tissue ratio at 4 h [4] was 48.1 ± 11.3. It also gave a tissue to tissue ratio at 24 h [4] of 26.5 ± 4.82, a tissue to tissue ratio at 72 h (tumor/pancreas, 72 h pi, n = 5, read-out: Tumor/pancreas uptake ratio) of 46.8 ± 13.9 and a tissue to tissue ratio at 120 h [4] of 51.5 ± 13.9. For the same compound, the tissue uptake at 1 h (PC-3 tumor, 100 ug, blocked (100 µg GRPR antagonist co-injected), read-out: PC-3 tumor uptake) was 2.02 ± 0.44 %ID/g, the tissue uptake at 1 h [5] was 5.67 ± 1.02 %ID/g and the tissue uptake at 4 h [5] was 2.96 ± 0.37 %ID/g. The tissue uptake at 24 h [5] was 1.12 ± 0.2 %ID/g, the tissue uptake at 72 h (PC-3 tumor, 72 h pi, n = 5, read-out: PC-3 tumor uptake) was 0.55 ± 0.15 %ID/g and the tissue uptake at 120 h [5] was 0.32 ± 0.06 %ID/g. It also gave a tissue uptake at 72 h (PC-3 tumor, after 72 h pi, read-out: tumor uptake) of under 1 %ID/g, a tissue uptake at 1 h (adrenal glands, 100 ug, blocked (100 µg GRPR antagonist co-injected), read-out: Adrenal glands uptake) of 0.23 ± 0.06 %ID/g and a tissue uptake at 1 h [6] of 0.18 ± 0.05 %ID/g. It also gave a tissue uptake at 4 h [6] of 0.17 ± 0.09 %ID/g, a tissue uptake at 24 h [6] of 0.12 ± 0.05 %ID/g and a tissue uptake at 72 h (adrenal glands, 72 h pi, n = 5, read-out: Adrenal glands uptake) of 0.02 ± 0.01 %ID/g. It also gave a tissue uptake at 120 h [6] of 0.03 ± 0.02 %ID/g, a tissue uptake at 1 h (blood, 100 ug, blocked (100 µg GRPR antagonist co-injected), read-out: Blood uptake) of 0.74 ± 0.18 %ID/g and a tissue uptake at 1 h [7] of 0.37 ± 0.14 %ID/g. It also gave a tissue uptake at 4 h [7] of 0.02 %ID/g, a tissue uptake at 24 h [7] of 0.01 ± 0.01 %ID/g and a tissue uptake at 1 h (bone, 100 ug, blocked (100 µg GRPR antagonist co-injected), read-out: Bone uptake) of 0.07 ± 0.04 %ID/g. It also gave a tissue uptake at 1 h [8] of 0.06 ± 0.01 %ID/g, a tissue uptake at 4 h [8] of 0.01 %ID/g and a tissue uptake at 24 h [8] of 0.02 ± 0.01 %ID/g. It also gave a tissue uptake at 72 h (bone, 72 h pi, n = 5, read-out: Bone uptake) of 0.01 ± 0.01 %ID/g, a tissue uptake at 120 h [8] of 0.01 ± 0.01 %ID/g and a tissue uptake at 1 h (brain, 100 ug, blocked (100 µg GRPR antagonist co-injected), read-out: Brain uptake) of 0.02 ± 0.01 %ID/g. It also gave a tissue uptake at 1 h [9] of 0.02 %ID/g, a tissue uptake at 4 h [9] of 0.01 %ID/g and a tissue uptake at 1 h (fat, 100 ug, blocked (100 µg GRPR antagonist co-injected), read-out: Fat uptake) of 0.09 ± 0.04 %ID/g. For the same compound, the tissue uptake at 1 h [10] was 0.04 ± 0.02 %ID/g, the tissue uptake at 4 h [10] was 0.01 ± 0.01 %ID/g and the tissue uptake at 24 h [10] was 0.01 %ID/g. For the same compound, the tissue uptake at 1 h (heart, 100 ug, blocked (100 µg GRPR antagonist co-injected), read-out: Heart uptake) was 0.23 ± 0.05 %ID/g, the tissue uptake at 1 h [11] was 0.13 ± 0.05 %ID/g and the tissue uptake at 4 h [11] was 0.03 ± 0.01 %ID/g. The tissue uptake at 24 h [11] was 0.02 ± 0.01 %ID/g and the tissue uptake at 72 h (heart, 72 h pi, n = 5, read-out: Heart uptake) was 0.01 %ID/g.
